# Results reported in patent US20090238852A1, “METHODS FOR CONTROLLING INTRACELLULAR CALCIUM LEVELS ASSOCIATED WITH AN ISCHEMIC EVENT” (University of Utah Research Foundation, priority 2008, published 2009).
# Like-named read-outs stand apart in the source and are kept apart here.
# Assays:
# [1] = test system: pigs, 75 min LAD balloon occlusion and 3 h reperfusion; assay: Porcine ischemia/reperfusion model: global ejection fraction by contrast ventriculography; type: in vivo, pig; settings: for Global Ejection Fraction, Baseline: before ischemia and dosing; for Global Ejection Fraction, 180 Minutes after End of Ischemia: control 34 ± 3
# Source text: Arterial access was achieved via bilateral femoral artery cut-downs for the insertion of 8F sheaths. Central venous and carotid access was achieved via a neck incision to expose the external jugular vein and common carotid artery. Animals were then anticoagulated with 50 U/kg of unfractionated heparin to maintain an activated clotting time (ACT) between 250-350 seconds, prior to ischemia. A 7-8 Fr pigtail catheter was placed in the left ventricular cavity to measure pressure and for injection of […] microspheres. Angiography was performed to define coronary anatomy and measure the diameter of the left anterior descending coronary artery (LAD) at the point of intended balloon occlusion. A coronary sinus catheter was placed via the external jugular vein under fluoroscopic guidance for coronary venous sampling. Baseline cardiodynamic and hemodynamic data were measured using a solid state transducer-tipped catheter in the left ventricle (Millar Instruments, Houston, Tex.) to measure left ventricular pressure, and a fluid-filled transducer connected to the side port of the femoral artery sheath to measure peripheral arterial pressure. Approximately 3-4 million neutron-activated microspheres (BioPhysics Assay Laboratory, Inc, Worcester, Ma) (15 μm) were delivered through a pig-tail catheter into the left ventricle over a 30 second period, to quantify regional myocardial blood flow (RMBF). Simultaneously with injection, a reference sample was withdrawn at a rate of 7 cc/min from the femoral artery sheath, for 90 seconds during and after injection of microspheres. A contrast ventriculogram (60° right anterior oblique) was obtained to assess global and regional myocardial function at baseline. An angioplasty balloon catheter sized to exceed ambient diameter by 1 mm (range chosen was 3.0-4.0 mm) was then inserted into the proximal LAD, after the first diagonal branch. […] In addition, 2% lidocaine (4-8 ml total) was administered during ischemia, as needed, to attenuate ventricular arrhythmias. Balloon occlusion time was 75 minutes with coronary occlusion confirmed by contrast angiography, ST segment changes on electrocardiography, and quantitatively confirmed by microspheres delivered at the end of ischemia, as described above. Episodes of ventricular fibrillation were immediately treated with electrical cardioversion delivered at 200 Joules. During the ischemic period, animals were randomly assigned to receive either saline vehicle or 2-O, 3-O desulfated heparin (ODSH) at a dose of 5 mg/kg, 15 mg/kg, or 45 mg/kg as an IV bolus at 2 minutes prior to deflation of the balloon (pharmacological postconditioning), and repeated at 90 minutes of reperfusion. Following deflation of the angioplasty balloon, animals underwent 3 hours of further reperfusion and observation. Microspheres were again injected to measure myocardial blood flow at 15 minutes of reperfusion and again at 180 minutes of reperfusion. At the end of 180 minutes of reperfusion, animals were euthanized with an IV injection of pentobarbital sodium (100 mg/kg) and the heart was excised to quantify the area at risk, infarct size, regional myocardial blood flow, and myeloperoxidase activity. Hemodynamic data (left ventricular and arterial blood pressure) and derived variables were recorded continuously using 10× and Datanalyst software (EMKA Technologies, Falls Church, Va.).
# Left ventricular contrast angiography was performed at baseline, ischemia, and 180 minutes after relief of ischemia. Contrast (Hypaque, approximately 50 mL) was rapidly injected via a pigtail catheter using a power injector. Left ventricular ejection fraction (LVEF) and regional function of the antero-lateral wall was calculated using the area-length method, which outlined the ventricle at the end of systole and diastole. LVEF and regional function were analyzed independently by 2 blinded observers.
# [2] = test system: blood coagulation (aPTT, PT, ACT); assay: Phase I single IV bolus study: coagulation tests (aPTT, PT, ACT); type: in vivo, human
# Protocol: (§1) A study was performed in 38 volunteer human subjects to assess the safety of escalating bolus doses of 2-O, 3-O desulfated heparin (ODSH). The study was a Phase I, randomized, double-blind, dose-escalation study with a single-day treatment period. Subjects were between the ages of 18 and 45, were not pregnant, and were normal in body weight. They all had normal coagulation function and hemoglobin values at baseline.
# (§2) Two subjects also received an injection of fully anticoagulated unfractionated heparin for comparison. ODSH dose groups were run in a series, and safety and tolerance data were evaluated prior to the start of the next dose level (4, 8 12, 16 and 20 mg/kg bolus intravenous doses). Twenty eight (28) subjects randomly received ODSH and 9 subjects were randomized to receive placebo, with an additional two subjects receiving commercially available unfractionated heparin.
# (§3) For each bolus dose, ODSH as a 50 mg/mL formulation was diluted with normal saline and a total volume of 50 ml was infused over 15 minutes containing the calculated amount of ODSH the subject was to receive. Placebo consisted of 50 mL of normal saline infused over 15 minutes. For subjects receiving heparin, 5,000 units (approximately 0.5 mg/kg) of heparin was diluted into 50 ml of normal saline and infused over 15 minutes.
# Immediately before infusion and beginning 7 minutes after the start of each infusion, blood was drawn at periodic times for 24 hours to monitor the effect of infusion on the following laboratory studies: activated partial thromboplastin time (aPTT); prothrombin time (PT); activated clotting time (ACT); and ODSH plasma level. Serum chemistries and a complete blood count were checked immediately before infusion and at eight (8) and twenty-four (24) hours later. Using values for aPTT and ODSH levels, pharmacokinetic parameters were calculated by noncompartmental methods using a commercial software program (PhAST 2.3-001). […]
# [3] = test system: blood coagulation (aPTT, ACT); assay: Phase I bolus plus 12 hour infusion study: coagulation tests (aPTT, ACT); type: in vivo, human; settings: all dosing regimens; FIG. 20
# Protocol: A study was performed in twenty-four (24) healthy adult subjects to assess the effects of a bolus dose and 12 hour infusion of 2-O, 3-O desulfated heparin. The study was a Phase I, randomized, double-blind, dose escalation study with single-day treatment periods. Subjects were males between the ages of 18 and 45, and were normal in body weight. They all had normal coagulation function and hemoglobin values at baseline. […] Eighteen (18) subjects were randomized to receive ODSH and six (6) subjects were randomized to receive placebo. Subjects received either ODSH or placebo as described below in Table 13.
# For each subject, ODSH as a 50 mg/ml formulation was diluted with normal saline and administered as a bolus infused over 15 minutes containing the calculated amount of ODSH the subject was to receive, followed by a constant infusion for 12 hours of ODSH diluted in saline. Placebo consisted of 50 mL of normal saline infused over 15 minutes, followed by normal saline infused for 12 hours. Immediately before infusion and after the start of each infusion, blood was drawn at periodic times (over a total 24 hour period) to monitor the effect of infusion on the following laboratory studies: activated partial thromboplastin time (aPTT); prothrombin time (PT); activated clotting time (ACT); and ODSH plasma level.
# [4] = in vivo
# Protocol: as §1, §2, §3
# Immediately before infusion and beginning 7 minutes after the start of each infusion, blood was drawn at periodic times for 24 hours to monitor the effect of infusion on the following laboratory studies: activated partial thromboplastin time (aPTT); prothrombin time (PT); activated clotting time (ACT); and ODSH plasma level. Serum chemistries and a complete blood count were checked immediately before infusion and at eight (8) and twenty-four (24) hours later. Using values for aPTT and ODSH levels, pharmacokinetic parameters were calculated by noncompartmental methods using a commercial software program (PhAST 2.3-001). The following pharmacokinetic parameters were calculated: • a) Maximum measured plasma concentration (Cmax); • b) First-order terminal elimination rate constant (Kel), calculated from a semi-log plot of the serum concentration versus time curve; this parameter was calculated by linear least-square regression analysis using the maximum number of points in the terminal log-linear phase (e.g., 3 or more non-zero serum concentrations); • c) Time of the maximum measured drug plasma concentration (tmax); • d) The area under the plasma concentration versus time curve from time 0 to the last observation (AUC 0-t), calculated by the linear trapezoidal method; • e) The area under the plasma concentration versus time curve from time 0 to infinity (AUCinf), which was calculated as the sum of AUC 0-t plus the ratio of the last measurable serum concentration to the elimination rate constant; • f) First-order terminal elimination (t1/2), calculated as 0.693/Kel; • g) Total body clearance (CL), calculated as Dose/AUCinf, and • h) Total volume of distribution (Vdss), calculated as MRT×CL.
# [5] = in vivo; remark: listed apart in the source
# Protocol: A study was performed in eight (8) healthy adult male and female subjects to assess the effects of a bolus dose and 72 hour infusion of 2-O, 3-O desulfated heparin. The study was a Phase I study with a three day treatment period. Doses were adjusted to maintain an aPTT level of 40-45 seconds. Subjects were between the ages of 18 and 60, were not pregnant, and were normal in body weight. They all had normal coagulation function and hemoglobin values at baseline.
# Subjects received an initial bolus of 8 mg/kg of ODSH over 15 minutes, followed by 72 hours continuous infusion beginning at 0.58 mg/kg/hr. For each subject ODSH as a 50 mg/ml formulation was diluted with normal saline and administered as a bolus infused over 15 minutes containing the calculated amount of ODSH the subject was to receive, followed by infusion of ODSH diluted in saline. The infusion dose was adjusted to maintain an aPTT of 40-45 seconds. Immediately before infusion and after the start of each infusion, blood was drawn at periodic times (over a total 72 hour period) to monitor the effect of infusion on the following laboratory studies: activated partial thromboplastin time (aPTT), prothrombin time (PT), activated clotting time (ACT), and ODSH plasma level. Serum chemistries and a complete blood count were checked immediately before infusion and again periodically for up to 240 hours later. Using values for aPTT and ODSH levels, pharmacokinetic parameters were calculated by noncompartmental methods using a commercial software program (PhAST 2.3-001). The following pharmacokinetic parameters were calculated as above: Cmax; Kel; tmax; AUC O-t; AUCinf, t1/2; CL; and Vdss.
substance,measurement,setting,value
"2-O, 3-O desulfated heparin [ODSH]","Global Ejection Fraction, Ischemia","[1]; ODS 15 mg/kg (second line, r8)",23 ± 3%
same,"Global Ejection Fraction, Baseline","[1]; ODS 15 mg/kg (second line, r8)",57 ± 4%
same,"Global Ejection Fraction, 180 Minutes after End of Ischemia","[1]; ODS 15 mg/kg (second line, r8)",42 ± 4%
same,"Global Ejection Fraction, Ischemia",[1]; ODS 45 mg/kg,30 ± 3%
same,"Global Ejection Fraction, Baseline",[1]; ODS 45 mg/kg,60 ± 2%
same,"Global Ejection Fraction, 180 Minutes after End of Ischemia",[1]; ODS 45 mg/kg,38 ± 6%
same,ejection fraction at 3 hours after the end of ischemia versus control,"[1]; ODS-treated animals, all doses",tended to be higher
same,"Global Ejection Fraction, Baseline","[1]; line printed ODS 15 mg/kg (first of two, r7), control 52 ± 2",61 ± 2%
same,"Global Ejection Fraction, Ischemia","[1]; line printed ODS 15 mg/kg (first of two, r7), control 25 ± 2",30 ± 3%
same,"Global Ejection Fraction, 180 Minutes after End of Ischemia","[1]; line printed ODS 15 mg/kg (first of two, r7)",42 ± 5%
same,PT,[2]; IV bolus 4 to 20 mg/kg,increased in a dose-dependent manner
same,change from baseline in aPTT,"[2]; IV bolus 4 to 20 mg/kg, FIG. 16",rapid increase in aPTT over the infusion period in a dose-dependent fashion
same,mean ACT value at 15 minutes,[2]; ODSH 20 mg/kg IV bolus,207 s
same,change from baseline in ACT,"[2]; bolus doses of 12-20 mg/kg, FIG. 17",Therapeutic increases in the ACT
same,ACT increases,[3],ACT increases providing adequate therapeutic anticoagulation necessary for the cardiac catheterization laboratory were observed in all dosing regimens
same,"Mean clearance values, range over the dose groups","[4]; human, iv",0.172 to 0.257 mL/min/kg
same,"Mean elimination half-life values, range over the dose groups","[4]; human, iv",1.93 to 2.72 h
same,"Median tmax values, range over the dose groups","[4]; human, iv",0.37 to 0.88 h
same,AUC 0-t,"[4]; human, iv, 4 mg/kg",307.2 µg·h/mL
same,AUCinf,"[4]; human, iv, 4 mg/kg",415.2 µg·h/mL
same,CL,"[4]; human, iv, 4 mg/kg",0.1709 ± 0.064973 mL/min/kg
same,Cmax,"[4]; human, iv, 4 mg/kg",130.76 µg/mL
same,MRT,"[4]; human, iv, 4 mg/kg",3.780 ± 1.6710 h
same,Vdss,"[4]; human, iv, 4 mg/kg",0.03495 ± 0.011679 L/kg
same,t1/2,"[4]; human, iv, 4 mg/kg",2.585 ± 1.1225 h
same,tmax,"[4]; human, iv, 4 mg/kg",0.47 h
same,AUC 0-t,"[4]; human, iv, 8 mg/kg",461.9 µg·h/mL
same,AUCinf,"[4]; human, iv, 8 mg/kg",629.2 µg·h/mL
same,CL,"[4]; human, iv, 8 mg/kg",0.2147 ± 0.039202 mL/min/kg
same,Cmax,"[4]; human, iv, 8 mg/kg",163.74 µg/mL
same,MRT,"[4]; human, iv, 8 mg/kg",2.775 ± 0.6087 h
same,Vdss,"[4]; human, iv, 8 mg/kg",0.03513 ± 0.00658 L/kg
same,t1/2,"[4]; human, iv, 8 mg/kg",1.933 ± 0.4537 h
same,tmax,"[4]; human, iv, 8 mg/kg",0.37 h
same,AUC 0-t,"[4]; human, iv, 12 mg/kg",619.1 µg·h/mL
same,AUCinf,"[4]; human, iv, 12 mg/kg",1086.5 µg·h/mL
same,CL,"[4]; human, iv, 12 mg/kg",0.1867 ± 0.036203 mL/min/kg
same,Cmax,"[4]; human, iv, 12 mg/kg",179.28 µg/mL
same,MRT,"[4]; human, iv, 12 mg/kg",3.894 ± 0.9516 h
same,Vdss,"[4]; human, iv, 12 mg/kg",0.04212 ± 0.00317 L/kg
same,t1/2,"[4]; human, iv, 12 mg/kg",2.724 ± 0.6667 h
same,tmax,"[4]; human, iv, 12 mg/kg",0.88 h
same,AUC 0-t,"[4]; human, iv, 16 mg/kg",886.9 µg·h/mL
same,AUCinf,"[4]; human, iv, 16 mg/kg",1075.8 µg·h/mL
same,CL,"[4]; human, iv, 16 mg/kg",0.25607 ± 0.067503 mL/min/kg
same,Cmax,"[4]; human, iv, 16 mg/kg",285.38 µg/mL
same,MRT,"[4]; human, iv, 16 mg/kg",3.287 ± 1.0560 h
same,Vdss,"[4]; human, iv, 16 mg/kg",0.04725 ± 0.007944 L/kg
same,t1/2,"[4]; human, iv, 16 mg/kg",2.261 ± 0.8548 h
same,tmax,"[4]; human, iv, 16 mg/kg",0.50 h
same,AUC 0-t,"[4]; human, iv, 20 mg/kg",1322.1 µg·h/mL
same,AUCinf,"[4]; human, iv, 20 mg/kg",1638.7 µg·h/mL
same,CL,"[4]; human, iv, 20 mg/kg",0.20877 ± 0.003483 mL/min/kg
same,Cmax,"[4]; human, iv, 20 mg/kg",366.73 µg/mL
same,MRT,"[4]; human, iv, 20 mg/kg",3.639 ± 0.6670 h
same,Vdss,"[4]; human, iv, 20 mg/kg",0.04556 ± 0.008256 L/kg
same,t1/2,"[4]; human, iv, 20 mg/kg",2.637 ± 0.4765 h
same,tmax,"[4]; human, iv, 20 mg/kg",0.50 h
same,ODSH plasma levels produced,[4],> 300 µg/mL
same,"Platelet count, Day After Infusion",[5],261 ± 37 thousands/μL blood
same,"Platelet count, Day Before Infusion",[5],261 ± 40 thousands/μL blood
same,"Platelet count, Infusion Day 2",[5],258 ± 39 thousands/μL blood
same,"Platelet count, Infusion Day 3",[5],272 ± 42 thousands/μL blood
same,ecchymosis,[5],Mild ecchymosis was reported in one subject
same,transient elevations in serum ALT and AST,[5],observed in seven subjects
